Patent US12383624B2, “Cargo delivery system and composition comprising the same” (SEOUL NATIONAL UNIVERSITY R&DB FOUNDATION, priority 2018, dated 2025)

What was measured:
[1] = system: BRD3; test: target protein degradation by immunoblotting (Experimental Example 6); format: cell-based, human, mouse; details: HEK293T, LNcap and MEF cell lines, 24 hours
Protocol: (§1) In order to evaluate the target proteion degradation efficacy by Examples 14 to 33 according the disclosure, the following experiment was conducted.
(§2) First, as cell lines primarily expressing the target protein, Human kidney-derived cancer cells, HEK293T (ATCC, CRL-3216), human prostate-derived cancer cells, LNcap (Korean Cell Line Bank, Korean Cell Line Research Foundation, KCLB No. 80018), mouse embryonic fibroblast, MEF (ATCC, SCRC-1008), human cervical cancer cells, HeLa (Korean Cell Line Bank, Korean Cell Line Research Foundation, KCLB No. 10002), human blood-derived cells, K562 (Korean Cell Line Bank, Korean Cell Line Research Foundation, KCLB No. 10243), human blood-derived cells, THP-1 (Korean Cell Line Bank, Korean Cell Line Research Foundation, KCLB No. 40202), human lung-derived cancer cells, A549 (Korean Cell Line Bank, Korean Cell Line Research Foundation, KCLB No. 10185), human breast-derived cancer cells, MCF7 (Korean Cell Line Bank, Korean Cell Line Research Foundation, KCLB No. 30022), human neuroblastoma, SH-SY5Y cell lines (Korean Cell Line Bank, Korean Cell Line Research Foundation, KCLB No. 22266), human pancreatic cancer cells, PANC-1 (Korean Cell Line Bank, Korean Cell Line Research Foundation, KCLB No. 21469) were cultured, respectively, in an incubator maintained at 5% carbon dioxide, using DMEM containing 10% FBS and 1% streptomycin/penicillin, RPMI1640, or MEM medium, and then the respective cells were dispensed in 12-well plate. Additional incubation was performed for 24 hours to ensure that each cell completely fixed to the surface of the plate.
(§3) In order to confirm whether Compounds A to W of Examples 14 to 33 degrade the target protein respectively, the cultured cells were treated with the compound of each example for 24 hours and then collected.
(§4) In this case, HEK293T, which is human kidney-derived cancer cells, LNcap, which is human prostate-derived cancer cells, and MEF cell line, which is mouse embryonic fibroblasts, were treated with Example 14 (Compound A). […]

[2] = system: BRD4; test: as above; format: cell-based, human, mouse; details: HEK293T, LNcap and MEF cell lines, 24 hours
Protocol: as §1, §2, §3, §4

[3] = system: BRD2; test: as above; format: cell-based, human, mouse; details: HEK293T, LNcap and MEF cell lines, 24 hours
Protocol: as §1, §2, §3, §4

[4] = system: PDE4; test: as above; format: cell-based, human; details: HEK293T, 24 hours
Protocol: as §1, §2, §3
(§5) In this case, HEK293T, which is human kidney-derived cancer cells, LNcap, which is human prostate-derived cancer cells, and MEF cell line, which is mouse embryonic fibroblasts, were treated with Example 14 (Compound A). HEK293T, which is human kidney-derived cancer cells, was treated with Example 15 (Compound B). HEK293T cell line, which is human kidney-derived cancer cells, and HeLa cell line, which is cervical-derived cancer cells, were treated with Example 16 (Compound C). HEK293T cell line, which is human kidney-derived cancer cells, was treated with Example 17 (Compound D). K562 cell line, which is human blood-derived cells, was treated with Example 18 (Compound E). HEK293T cell line, which is human kidney-derived cancer cells, was treated with Example 19 (Compound F). THP-1 cell line, which is human blood-derived cells, was treated with Example 20 (Compound G). A549 cell line, which is human lung-derived cancer cells, was treated with Example 21 (Compound H). A549 cell line, which is human lung-derived cancer cells, was treated with Example 22 (Compound I). MCF7 cell line, which is human breast-derived cancer cells, was treated with Example 23 (Compound J). HEK293T cell line, which is […], was treated with Example 24 (Compound L). SH-SY5Y, which is human neuroblastoma, and HeLa cell line, which is cervical-derived cancer cells, were treated with Example 25 (Compound M). THP-1 cell line, which is human blood-derived cells, was treated with Example 26 (Compound P). SH-SY5Y, which is human neuroblastoma, and HeLa cell line, which is cervical-derived cancer cells, were treated with Example 27 (Compound Q). SH-SY5Y, which is human neuroblastoma, and HeLa cell line, which is cervical-derived cancer cells, were treated with Example 28 (Compound R). HeLa cell line, a human cervical-derived cancer cell, was treated with Example 29 (Compound S). SH-SY5Y cell line, which is human neuroblastoma, was treated with Example 30 (Compound T). SH-SY5Y cell line, which is human neuroblastoma, was treated with Example 31 (Compound U). PANC-1 cell line, which is human pancreatic-derived cancer cells, was treated with Example 32 (Compound V). […]

[5] = biological target: T1, ACVR1 (Homo sapiens, UniProt Q04771); test: as above; format: cell-based; details: HEK293T and HeLa cell lines, 24 hours
T1 construct: as cell lines primarily expressing the target protein; endogenous in cells; host or cells: HEK293T, HeLa
Protocol: as §1, §2, §3, §5

[6] = biological target: T2, Chk1 (Homo sapiens, UniProt O14757); test: as above; format: cell-based; details: HEK293T cell line, 24 hours
T2 construct: as cell lines primarily expressing the target protein; endogenous in cells; host or cells: HEK293T
Protocol: as §1, §2, §3, §5

[7] = biological target: T3, Desmin Mut(L385P) (Homo sapiens, UniProt P17661, L385P); test: as above; format: cell-based; details: SH-SY5Y and HeLa cell lines treated, 24 hours
T3 construct: expressed in transfected cells; host or cells: HeLa (Compound S); SH-SY5Y or HeLa (Compounds M, Q, R)
Protocol: as §1, §2, §3, §5

[8] = biological target: T4, α-synuclein(A53T) (Homo sapiens, UniProt P37840, A53T); test: as above; format: cell-based; details: SH-SY5Y and HeLa cell lines treated, 24 hours
T4 construct: expressed in transfected cells; host or cells: SH-SY5Y (Compound U); SH-SY5Y or HeLa (Compound M)
Protocol: as §1, §2, §3, §5

[9] = system: Tau; test: as above; format: cell-based, human; details: 24 hours
Protocol: as §1, §2, §3, §5

[10] = system: p62 and each target protein; test: p62-mediated delivery of target proteins to autophagy by immunofluorescence staining and confocal microscopy; format: cell-based; details: cells cultured 24 hours with compound
Protocol: In order to confirm the efficacy of P62-mediated delivery of target proteins to autophagy after treatment with the example compounds of the disclosure, immunofluorescence staining was performed by using p62 and each target protein as markers. The cover glass was placed on a 24-well plate for immunofluorescence staining, cell lines primarily expressing the target protein or gene recombinant cell lines were cultured. The cells were dispensed and cultured 24 hours, and then treated with Example 1 (ATCRET-1104), Example 5 (Anle138b F105), Example 7 (Vinclozolin 2204), Example 8 (PHTPP 1304), Example 9 (Baicalein 2204), Example 10 (Resveratrol 1105), Example Example 11 (BTA-1 1104), Example 30 (Compound T) according to the disclosure, respectively. The cells were further cultured for 24 hours for the action of the compounds, the medium was removed, and the cells were fixed using formaldehyde at room temperature. In order to prevent non-specific staining, the cells were reacted with the blocking solution at room temperature for 1 hour, and then the p62 antibody and target protein antibody diluted at a certain ratio were treated using the block solution, and then reacted at room temperature for 1 hour. […]

[11] = biological target: T5, p-53 (Homo sapiens, UniProt P04637, R273H); test: target protein degradation by immunoblotting (Experimental Example 6); format: cell-based; details: PANC-1 cell line, 24 hours
T5 construct: endogenous in cells; host or cells: PANC-1
Protocol: as §1, §2, §3, §5

T3 sequence (P17661 whole entry L385P): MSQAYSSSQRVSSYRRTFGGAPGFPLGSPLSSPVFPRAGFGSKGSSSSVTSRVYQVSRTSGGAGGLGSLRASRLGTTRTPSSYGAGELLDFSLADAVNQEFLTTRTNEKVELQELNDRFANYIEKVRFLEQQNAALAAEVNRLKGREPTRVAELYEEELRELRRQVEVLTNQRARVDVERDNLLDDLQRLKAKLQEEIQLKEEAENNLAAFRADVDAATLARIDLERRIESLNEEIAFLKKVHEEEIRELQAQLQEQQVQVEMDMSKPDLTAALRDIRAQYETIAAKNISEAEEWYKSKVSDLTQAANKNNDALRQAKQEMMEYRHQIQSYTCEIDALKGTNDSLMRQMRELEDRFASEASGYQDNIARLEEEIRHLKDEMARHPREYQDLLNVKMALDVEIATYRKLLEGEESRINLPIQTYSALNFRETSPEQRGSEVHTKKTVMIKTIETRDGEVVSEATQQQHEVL
T1 sequence (Q04771 21-509): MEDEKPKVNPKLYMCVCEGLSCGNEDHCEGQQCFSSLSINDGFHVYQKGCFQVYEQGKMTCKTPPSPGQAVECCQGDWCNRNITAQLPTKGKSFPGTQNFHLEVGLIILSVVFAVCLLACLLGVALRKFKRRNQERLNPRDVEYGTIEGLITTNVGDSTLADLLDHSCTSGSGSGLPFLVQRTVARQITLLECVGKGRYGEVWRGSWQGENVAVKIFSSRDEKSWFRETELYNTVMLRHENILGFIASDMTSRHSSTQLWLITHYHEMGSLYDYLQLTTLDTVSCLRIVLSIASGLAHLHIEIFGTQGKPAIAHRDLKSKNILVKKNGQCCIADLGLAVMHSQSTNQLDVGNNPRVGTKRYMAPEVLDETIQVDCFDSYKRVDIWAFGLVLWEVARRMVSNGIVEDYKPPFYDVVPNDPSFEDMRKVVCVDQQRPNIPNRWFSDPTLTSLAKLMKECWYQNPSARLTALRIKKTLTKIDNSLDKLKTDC
T2 sequence (O14757 whole entry): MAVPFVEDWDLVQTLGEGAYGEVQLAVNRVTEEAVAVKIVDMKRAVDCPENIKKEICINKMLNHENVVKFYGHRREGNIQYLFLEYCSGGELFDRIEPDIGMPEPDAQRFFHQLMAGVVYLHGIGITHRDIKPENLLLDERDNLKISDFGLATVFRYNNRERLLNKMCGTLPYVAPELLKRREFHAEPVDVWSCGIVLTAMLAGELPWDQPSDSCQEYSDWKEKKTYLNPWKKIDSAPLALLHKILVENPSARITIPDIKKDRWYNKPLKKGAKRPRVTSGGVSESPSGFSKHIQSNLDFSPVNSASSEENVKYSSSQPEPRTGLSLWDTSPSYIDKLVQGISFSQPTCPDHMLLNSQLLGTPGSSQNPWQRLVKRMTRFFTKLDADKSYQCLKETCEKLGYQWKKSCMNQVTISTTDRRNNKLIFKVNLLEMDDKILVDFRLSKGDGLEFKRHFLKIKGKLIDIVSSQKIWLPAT

Cc1sc2c(c1C)C(c1ccc(Cl)cc1)=N[C@@H](CC(=O)NCCOCCOCCNC[C@@H](O)COc1ccc(OCc3ccccc3)c(OCc3ccccc3)c1)c1nnc(C)n1-2 [Example 14, N-(2-(2-(2-(((R)-3-(3,4-bis(benzyloxy)phenoxy)-2-hydroxypropyl)amino)ethoxy)ethoxy)ethyl)-2-((S)-4-(4-chlorophenyl)-2,3,9-trimethyl-6H-thieno[3,2-f][1,2,4]triazolo[4,3-a][1,4]diazepin-6-yl)acetamide]
degradation of target protein BRD3 (decrease in level vs Control) [1]: can be degraded
degradation of target protein BRD4 (decrease in level vs Control) [2]: can be degraded
degradation of target protein BRD2 (decrease in level vs Control) [3]: can be degraded

COc1ccc([C@]2(C#N)CC[C@@H](C(=O)NCCOCCOCCNCc3ccc(OCc4ccccc4)c(OCc4ccccc4)c3)CC2)cc1OC1CCCC1 [Example 15, (1s,4s)-N-(2-(2-(2-((3,4-bis(benzyloxy)benzyl)amino)ethoxy)ethoxy)ethyl)-4-cyano-4-(3-(cyclopentyloxy)-4-methoxyphenyl)cyclohexane-1-carboxamide]
degradation of target protein PDE4 (decrease in level vs Control) [4]: can be degraded

O[C@H](CNCCOCCOCCN1CCN(c2ccc(-c3cnc4c(-c5cccc6ncccc56)cnn4c3)cc2)CC1)COc1cccc(OCCc2ccccc2)c1 [Example 16, (R)-1-(3-phenethoxyphenoxy)-3-((2-(2-(2-(4-(4-(3-(quinolin-5-yl)pyrazolo[1,5-a]pyrimidin-6-yl)phenyl)piperazin-1-yl)ethoxy)ethoxy)ethyl)amino)propan-2-ol]
degradation of target protein ACVR1 (decrease in level vs Control) [5]: can be degraded

NC(=O)Nc1cc(-c2cccc(F)c2)sc1C(=O)N[C@H]1CCCN(CCOCCOCCNC[C@@H](O)COc2cccc(OCCc3ccccc3)c2)C1 [Example 17, 5-(3-fluorophenyl)-N—((S)-1-(2-(2-(2-(((R)-2-hydroxy-3-(3-phenethoxyphenoxy)propyl)amino)ethoxy)ethoxy)ethyl)piperidin-3-yl)-3-ureidothiophene-2-carboxamide]
degradation of target protein Chk1 (decrease in level vs Control) [6]: can be degraded

O=C(c1cc(-c2cc3c(cc2C(=O)N2Cc4ccccc4C[C@H]2CN2CCN(CCOCCOCCOCCOCCNCc4ccc(OCc5ccccc5)c(OCCc5ccccc5)c4)CC2)OCO3)n2c1CCCC2)N(c1ccccc1)c1ccc(O)cc1 [Example 25, (S)-3-(6-(3-((4-(1-(4-(benzyloxy)-3-phenethoxyphenyl)-5,8,11,14-tetraoxa-2-azahexadecan-16-yl)piperazin-1-yl)methyl)-1,2,3,4-tetrahydroisoquinoline-2-carbonyl)benzo[d][1,3]dioxol-5-yl)-N-(4-hydroxyphenyl)-N-phenyl-5,6,7,8-tetrahydroindolizine-1-carboxamide]
degradation of target protein Desmin Mut(L385P) (decrease in level vs Control) [7]: can be degraded
degradation of target protein α-synuclein(A53T) (decrease in level vs Control) [8]: can be degraded
degradation of target protein Tau (decrease in level vs Control) ([9]; SH-SY5Y and HeLa cell lines treated): can be degraded

O=C(CCCc1ccccc1)NCCOCCOCCOCCNC[C@@H](O)COc1cccc(OCc2ccc(F)cc2)c1 [Example 30, (R)—N-(15-(3-((4-fluorobenzyl)oxy)phenoxy)-14-hydroxy-3,6,9-trioxa-12-azapentadecyl)-4-phenylbutanamide]
degradation of target protein Tau (decrease in level vs Control) ([9]; SH-SY5Y cell line): can be degraded
intracellular puncta formation of p62 proteins and of target proteins, and local co-existence thereof [10]: increase gradually

CN(CCOCCOCCOCCNC[C@@H](O)COc1ccc(OCc2ccc(F)cc2)c(OCc2ccc(F)cc2)c1)c1ccc2nc3ccc(=[N+](C)C)cc-3sc2c1 [Example 32, (R)—N-(7-((15-(3,4-bis((4-fluorobenzyl)oxy)phenoxy)-14-hydroxy-3,6,9-trioxa-12-azapentadecyl) (methyl)amino)-3H-phenothiazin-3-ylidene)-N-methylmethanaminium 2,2,2-trifluoroacetate]
degradation of target protein p-53 (decrease in level vs Control) [11]: can be degraded

CN(CCOCCOCCOCCNC[C@@H](O)COc1cccc(OCc2ccc(F)cc2)c1)c1ccc2nc3ccc(=[N+](C)C)cc-3sc2c1.O=C([O-])C(F)(F)F [Example 33, (R)—N-(7-((15-(3-((4-fluorobenzyl)oxy)phenoxy)-14-hydroxy-3,6,9-trioxa-12-azapentadecyl) (methyl)amino)-3H-phenothiazin-3-ylidene)-N-methylmethanaminium 2,2,2-trifluoroacetate]
degradation of target protein p-53 (decrease in level vs Control) [11]: can be degraded
